The source of these data is US11492618B2, “Expression control using a regulatable intron” (ASKLEPIOS BIOPHARMACEUTICAL, INC., priority 2017, dated 2022).

For data set [1], the system named is HEK293 cells. The data set is described as follows: Cell death (trypan blue) after induction of intron-controlled caspase 9. The format is cell-based, human. To be noted: HEK293 with SYNP-CASP9-INT, DTT 2 mM. The protocol: Transfection was performed as previously described. DTT was added at 2 mM and forskolin was added at 10 μM. The latter was carried out to determine whether forskolin could induce the removal of the intron. Amongst other things, forskolin has potential gene therapy applications. Induction of intron removal was measured as function of cell death, with higher cell death an indicator of removal of the intron.
Experiments were performed as described in the methods namely, HEK or CHO-s cells were transfected with the aforementioned construct and incubated for 24 h. After this time the activating compound DTT or Forskolin was added, % cell death was then measured at 3, 5 and 24 h post-induction.
Induction of intron was measured as function of cell death, using the Countess II cell counter (Thermofisher). Cells were stained with trypan blue to ascertain cell viability. 10 μl of cell suspension was added to a Haemocytomer and analysed on the countess.

A further data set relates to UPR. The data set is described as follows: Induction of UPR by candidate inducers, EGFP read-out from SYNP-ATF6-02. The format is cell-based, human. To be noted: HEK293F with SYNP-ATF6-02; DTT 2 mM, palmitate 0.5 mM, MF-43 1 μM; 0-24 hrs. As to the method: Experiments were performed to assess the ability of several candidate agents to induce the UPR. The ability of these candidate inducers to induce UPR was assessed using the techniques essentially as described above. The additional candidates tested were 0.5 mM palmitic acid, 1 uM MF-43 (2-methyl-5-(6-(4-(2-(trifluoromethyl)phenoxy)piperidin-1-yl)pyridazin-3-yl)-1,3,4-thiadiazole), which is an inhibitor of stearoyl-CoA desaturase, and a combination of both of these (for the same concentrations of each was used).
In these experiments transfections were done in 24-well plates as previously described. The SYNP-ATF6-02 plasmid (i.e. SYNP-ATF6-02 in pMA-RQ vector) was transfected into HEK293F cells and after 24 hrs GFP was measured. Induction of the UPR was then stimulated using the aforementioned inducers and samples were taken and measured at 0, 1, 3, 5 and 24 hrs after induction. GFP expression was measured as previously described. Results are the average of 3 individual experiments and the error bars represent the standard deviation.
Experimental procedure in brief: • 40 ml of cells were grown in a 250 ml vented Erlenmeyer flask (Sigma-Aldrich CLS431144) at 37° C., 8% CO2 with agitation at 100 rpm. […]
AAV production on induction of UPR: The ATF6 plasmid (i.e. SYNP-ATF6-02 in pMA-RQ vector) was transfected into HEK293 cells as previously described. 24 hrs later GFP was measured. […] EGFP fluorescence was then measured after 1, 3, 5 and 24 hrs. […]

The subject of a further data set is HEK293-F cells. In words: Luciferase expression from UPR-inducible promoters with different minimal promoters after 2 mM DTT. The format is cell-based, human. The source says:
The purpose of this experiment was to test the ATF6-containing UPR-responsive cis-regulatory element (also referred to herein as an enhancer) as used in the examples above with different minimal promoters and to further assess their inducibility and tightness of control. To this end, the ATF6-containing UPR-responsive cis-regulatory element was operably linked to the CMV-MP and MinTK (herpes thymidine kinase minimal promoter) minimal promoters The constructs were synthesised by GeneART by chemical synthesis, as above.
As described above, the enhancer sequence contains 6 repeats of the sequence TGACGTGCT (which contains the ATF6 consensus sequence, TGACGTG) spaced by 20 bp spacer sequences. The enhancer sequence was coupled to either MinTK (in construct ATF06-MP001) or CMV-MP (in construct ATF06-MP002).
Transfection of HEK293-F cells was performed as previously described. DTT was added at a concentration of 2 mM. Luciferase activity was measured as previously described. The results are shown in FIG. 17—the DTT was added at time=0 h as shown on the X-axis (units are hours).

Data set [2] concerns HEK293 cells. The data set is described as follows: SEAP activity from intron-containing SEAP construct after DTT induction. The format is cell-based, human. The protocol: (§1) Experiments were performed essentially as described in the above methods, namely, HEK or CHO-s cells were transfected with the aforementioned construct (pMA-RQ) and incubated for 24 hrs. After this time the activating compound DTT was added at 2 mM final concentration, SEAP activity was then measured at 3, 5 and 24 hrs post-induction.
(§2) The protocol for transfection for 24 well plates was as described in Example 1. Thereafter: • Supernatant was measured for SEAP activity after 24 hrs. • Intron splicing from the SEAP construct was measured after addition of either 2 mM DTT by monitoring of SEAP activity after 3, 5 and 24 hrs. • SEAP activity was measured as per manufacturer's instructions, Roche, SEAP reporter gene assay kit, obtained from Sigma-Aldrich, Cat. No. 11 779 842 001.

The test system of the next data set is CHO cells. The data set is described as above. The format is cell-based, Chinese hamster. The protocol: as §1, §2
A further data set concerns CHO-S cells. In words: EGFP fluorescence from regulatable-intron construct before and after UPR induction with 2 mM DTT. The format is cell-based, Chinese hamster. The protocol:
(§3) The standard protocol for transfection of these cells was modified for 24 well plates as follows: • 40 ml of cells were grown in a 250 ml vented Erlenmeyer flask (Sigma-Aldrich CLS431144) at 37° C., 8% CO2 with agitation at 100 rpm. Cells were seeded as described in the manufacturer's instructions. • 1 day before transfection cells were counted using a haemocytometer and split to 500,000 cells/ml. • On the day of transfection cells are seeded to 1 million cells/ml in 500 μl of appropriate medium in a 24 well plate. • 0.625 μg of DNA/well was then added to 10 μl of OptiMem medium (Thermofisher; 11058021) and incubated for 5 minutes at room temperature. • Concurrently 0.625 μl of Max reagent was made up to 10 μl by addition of OptiMem and incubated for 5 minutes at room temperature. • After this incubation both mixes were added to the same tube and incubated at room temperature for 25-30 minutes. • The DNA/Max reagent mix (20 μl/well) was then added directly to the cells and the cells incubated as described previously. • Cells were then measured for GFP fluorescence after 24 hrs. • Intron splicing from the GFP construct was measured via addition of 2 mM DTT and monitoring of GFP fluorescence after 1 hr. DTT is a strong reducing agent which induces ER stress by disrupting the formation of disulphide bonds within the ER. […]

Another data set deals with HEK293F cells. The data set is described as above. The format is cell-based, human. As to the method: as §3

As for `O[C@H](CS)[C@H](O)CS` (racemic) [DTT, Dithiothreitol], the “time after treatment at which % of dead cells is equal to the positive control” value with HEK293 cells [1] stood at 5 h. In addition, the “number of dead cells after 3 h” value with HEK293 cells [1] (3 h) was “close to the control construct which contained no intron”. Moreover, in the data set with UPR, the “induction of UPR indicated by expression of functional EGFP” value (shortened to “induction of UPR indicated”) is “very potent inducer of the UPR”.

As to `Cc1nnc(-c2ccc(N3CCC(Oc4ccccc4C(F)(F)F)CC3)nn2)s1` [MF-43, 2-methyl-5-(6-(4-(2-(trifluoromethyl)phenoxy)piperidin-1-yl)pyridazin-3-yl)-1,3,4-thiadiazole], the “induction of UPR indicated” value with UPR is on record as “effectively induced the UPR”.

Turning to `CCCCCCCCCCCCCCCC(=O)O` [palmitate, palmitic acid], in the data set with UPR, the “induction of UPR indicated” value is “effectively induced the UPR”.

Take “ATF06-MP001: ATF6 enhancer (6 repeats, 20 bp spacers) coupled to MinTK driving luciferase (SEQ ID NO: 59)”: in the data set with HEK293-F cells (2 mM DTT), the “inducibility of luciferase expression by DTT” value is recorded as “good inducibility” and the “luciferase expression after induction of the UPR versus CMV-IE promoter” value was “significantly higher than provided by the constitutive CMV-IE promoter”. Besides, the “luciferase expression prior to addition of DTT” value in the data set with HEK293-F cells (before 2 mM DTT) is recorded as “negligible expression”.

Turning to “SEAP-ATF6-001: SEAP expression construct with 6×ATF6 spaced by 20 bp, CMV-MP and regulatable intron (SEQ ID NO: 34)”, the “SEAP expression after 24 h higher than CMV-IE” value with HEK293 cells [2] (HEK293, 2 mM DTT, 24 h) was approximately 2 fold; with CHO cells (2 mM DTT, 24 h, CMV-IE shown in HEK293) it was approximately 2 fold. For the same compound, the “SEAP expression before induction” value in the data set with HEK293 cells [2] (HEK293, no DTT) is given as “no SEAP expression”; in the data set with CHO cells (no DTT) it was “no SEAP expression”.

In the case of “SYNP-XBP-01: CMV-MP controlling expression of EGFP with XBP1 intron (SEQ ID NO: 28), in plasmid pMA-RQ”, the “GFP fluorescence induced upon addition of 2 mM DTT” value with CHO-S cells (2 mM DTT) is recorded as more than 1000 fold. For the same compound, the “background GFP fluorescence before induction” value with CHO-S cells (no DTT) is “no background at all”; in the data set with HEK293F cells (no DTT, versus control) it was “considerably lower than the control”. Further, in the data set on HEK293F cells (2 mM DTT, 1 hr after treatment, 3 independent experiments), the “GFP production induced upon inducing ER-Stress” value is recorded as 4-10 fold. Moreover, the “resultant GFP activity higher than the positive control” value in the data set on HEK293F cells (after 2 mM DTT, control CMV-MP-GFP) is on record as 2.5-7 fold.
